From the supplement of paper PMC10307832

What follows are cell lines tested with CN1CCN(CC1)C2=CC(=C(C=C2)NC3=NC=C4C(=N3)N(C5=CC=CC=C5C(=O)N4C)C)OC [XMD8-85] + Cc1nc(NC(=O)N2CCC[C@H]2C(N)=O)sc1-c1ccnc(C(C)(C)C(F)(F)F)c1 [Alpelisib] (partner 2 µM) (assay: relative viability (nuclei count vs DMSO), 5 days (fraction); higher = more cells survive). Settings: first compound 0.08 µM.
How it was run: (§1)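 After 5 days of treatment, lung cancer cells in 1536-well plates were fixed and stained in a single step (final 0.05% Triton X-100, 1% formaldehyde, 1 ug/ml Hoechst) and their nuclei counted on 4× images. Treatment had been applied by pin tool the day after seeding as one drug alone or as a fixed anchor-drug dose with five library-drug doses (not always all listed) in √10 steps. Relative viability is the nuclei count of treated wells divided by that of vehicle wells, and values are medians of duplicate plates.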
Cell Line NCI-H2347 has a relative viability of 1.03.
In the case of NCI-H2405, the relative viability is reported as 0.812.
NCI-H3122 showed a relative viability of 0.814.
Cell Line PC-3 [JPC-3] has a relative viability of 1.02.
For PC-14, the relative viability was 0.784.
With RERF-LC-KJ the relative viability was 0.763.
SK-LU-1 gave a relative viability of 0.924.
For SK-MES-1, the relative viability was 0.769.
Work on SW 1573 yielded a relative viability of 0.917.
Cell Line UMC-11 has a relative viability of 0.954.

Same assay, conditions: first compound 0.253 µM
With NCI-H2228 the relative viability was 0.724.
NCI-H2347 was tested, and the relative viability was 1.06.
Work on NCI-H2405 yielded a relative viability of 0.818.
In the case of NCI-H3122, the relative viability is reported as 0.71.
PC-3 [JPC-3] was tested, and the relative viability was 1.05.
PC-14 was tested, and the relative viability was 0.882.
In the case of RERF-LC-KJ, the relative viability is reported as 0.675.
Cell Line SK-LU-1 has a relative viability of 1.07.
SK-MES-1 showed a relative viability of 0.654.
SW 1573 showed a relative viability of 0.596.
Cell Line UMC-11 has a relative viability of 0.931.

Same assay, conditions: first compound 0.8 µM
In the case of NCI-H2228, the relative viability is reported as 0.78.
For NCI-H2347, the relative viability was 1.03.
NCI-H2405 showed a relative viability of 0.833.
With NCI-H3122 the relative viability was 0.954.
In the case of PC-3 [JPC-3], the relative viability is reported as 1.06.
For PC-14, the relative viability was 0.762.
RERF-LC-KJ showed a relative viability of 0.957.
Work on SK-LU-1 yielded a relative viability of 1.08.
Cell Line SK-MES-1 has a relative viability of 1.03.
For SW 1573, the relative viability was 0.745.
UMC-11 was tested, and the relative viability was 1.

Same assay, conditions: first compound 2.53 µM
NCI-H2228 gave a relative viability of 0.891.
NCI-H2347 gave a relative viability of 1.
With NCI-H2405 the relative viability was 0.539.
NCI-H3122 was tested, and the relative viability was 0.93.
PC-3 [JPC-3] showed a relative viability of 1.01.
PC-14 showed a relative viability of 0.993.
In the case of RERF-LC-KJ, the relative viability is reported as 0.915.
SK-LU-1 was tested, and the relative viability was 1.01.
Work on SK-MES-1 yielded a relative viability of 1.02.
For SW 1573, the relative viability was 0.615.
UMC-11 was tested, and the relative viability was 0.939.

Same assay, conditions: first compound 8 µM
For NCI-H2228, the relative viability was 0.488.
Work on NCI-H2347 yielded a relative viability of 0.801.
NCI-H2405 showed a relative viability of 0.568.
Cell Line NCI-H3122 has a relative viability of 0.766.
PC-3 [JPC-3] showed a relative viability of 1.01.
PC-14 showed a relative viability of 0.655.
For RERF-LC-KJ, the relative viability was 0.677.
SK-LU-1 gave a relative viability of 0.855.
In the case of SW 1573, the relative viability is reported as 0.663.
UMC-11 gave a relative viability of 0.387.

What follows are cell lines tested with O=C(O)C(Cc1ccccc1[N+](=O)[O-])=NNc1nc(-c2ccc(Cl)c(Cl)c2)cs1 (mixture of isomers) [4EGI-1] + CC(=O)Nc1cccc(-n2c(=O)n(C3CC3)c(=O)c3c(Nc4ccc(I)cc4F)n(C)c(=O)c(C)c32)c1 [Trametinib] (partner 0.02 µM) in the same assay as above. Settings: first compound 0.5 µM.
How it was run: as §1
NCI-H2228 gave a relative viability of 0.496.
In the case of NCI-H2347, the relative viability is reported as 0.304.
With NCI-H2405 the relative viability was 0.856.
NCI-H3122 gave a relative viability of 0.235.
PC-3 [JPC-3] was tested, and the relative viability was 0.82.
In the case of PC-14, the relative viability is reported as 1.01.
With RERF-LC-KJ the relative viability was 0.887.
Cell Line SK-LU-1 has a relative viability of 0.5.
SK-MES-1 gave a relative viability of 0.582.
SW 1573 showed a relative viability of 0.59.
For UMC-11, the relative viability was 0.984.

Same assay, conditions: first compound 1.581 µM
For NCI-H2228, the relative viability was 0.499.
NCI-H2347 was tested, and the relative viability was 0.27.
NCI-H3122 gave a relative viability of 0.246.
With RERF-LC-KJ the relative viability was 0.679.
For SK-LU-1, the relative viability was 0.527.
With SK-MES-1 the relative viability was 0.559.
SW 1573 gave a relative viability of 0.476.
UMC-11 gave a relative viability of 0.71.

Same assay, conditions: first compound 5 µM
For NCI-H2228, the relative viability was 0.575.
NCI-H2347 gave a relative viability of 0.309.
In the case of NCI-H2405, the relative viability is reported as 0.703.
NCI-H3122 showed a relative viability of 0.233.
With PC-3 [JPC-3] the relative viability was 0.621.
PC-14 was tested, and the relative viability was 0.786.
Work on RERF-LC-KJ yielded a relative viability of 0.851.
With SK-LU-1 the relative viability was 0.538.
With SK-MES-1 the relative viability was 0.568.
SW 1573 was tested, and the relative viability was 0.526.
In the case of UMC-11, the relative viability is reported as 0.771.

Same assay, conditions: first compound 15.81 µM
NCI-H2228 gave a relative viability of 0.456.
In the case of NCI-H2347, the relative viability is reported as 0.298.
With NCI-H2405 the relative viability was 0.771.
Work on NCI-H3122 yielded a relative viability of 0.232.
For PC-3 [JPC-3], the relative viability was 0.399.
In the case of PC-14, the relative viability is reported as 0.561.
For RERF-LC-KJ, the relative viability was 0.726.
SK-LU-1 was tested, and the relative viability was 0.474.
With SK-MES-1 the relative viability was 0.541.
SW 1573 was tested, and the relative viability was 0.514.
For UMC-11, the relative viability was 0.873.

Same assay, conditions: first compound 50 µM
With NCI-H2228 the relative viability was 0.197.
For NCI-H2347, the relative viability was 0.302.
NCI-H2405 showed a relative viability of 0.482.
NCI-H3122 gave a relative viability of 0.305.
PC-3 [JPC-3] was tested, and the relative viability was 0.47.
PC-14 showed a relative viability of 0.0572.
RERF-LC-KJ showed a relative viability of 0.516.
SK-LU-1 was tested, and the relative viability was 0.326.
SK-MES-1 showed a relative viability of 0.418.
SW 1573 was tested, and the relative viability was 0.251.
With UMC-11 the relative viability was 0.493.
